{"source": "patent US7863325B2", "about": "“Crystalline genistein sodium salt dihydrate” (Axcentua Pharmaceuticals AB, priority 2008, dated 2011)", "key": {"[1]": {"experiment": "SuperSol 1000 kinetic and equilibrium solubility assay"}, "[2]": {"experiment": "Solubility in different solvents (aliquot addition until dissolution)", "format": "physicochemical", "protocol": "Solubility in different solvents: Solubility in different organic solvents was measured using the following protocol. Approximately 25 mg portions of genistein and crystalline genistein sodium dihydrate salt were placed in 48 different vials, separately. 5 volume aliquots of each solvent were added exclusively to a vial. Between each addition, the mixture was checked for dissolution and if no dissolution was apparent, the procedure was continued until dissolution was observed or when 50 volumes had been added."}, "[3]": {"details": "cited from earlier work"}, "[4]": {"details": "rat, mean ± SD, n = 3", "description": "Preparation of Dosing Solutions for In-Vivo Study: Genistein and Crystalline genistein sodium salt dihydrate were stored at room temperature under desiccant and protected from light. The dosing solutions were prepared fresh from powders on the day of dosing. The dosing solution for intravenous administration (IV) was prepared at 1 mg/mL (free acid) in 50:50 DMSO:saline. The dosing solutions for intraduodenal administration (ID) were prepared at 2 mg/mL (genistein free acid) in a 0.2% sodium carboxymethyl cellulose (Na CMC) solution in water.\nAnimal Dosing: The pharmacokinetics of genistein was evaluated in fasted male Sprague-Dawley rats. Each animal was fitted with a jugular vein cannula (JVC) for blood sampling. Animals intended for intravenous dosing were fitted with an additional JVC for dose administration. Animals intended for intraduodenal dosing were fitted with an intraduodenal cannula (IDC) for dose administration. Surgically modified animals were housed one per cage. All animals were supplied with a commercial rodent diet (LabDiet, Certified Rodent Diet #5002) ad libitum prior to study initiation. […] Water was supplied ad libitum.\nIntraduodenal dosing solutions were administered as a single bolus dose at time zero on the day of dosing. Intravenous doses were administered as a slow IV injection over approximately 1 minute. Blood sampling times began at the end of the infusion. Blood samples were collected.\nEach blood sample was collected from the rats via a jugular vein cannula and placed into chilled polypropylene tubes containing sodium heparin as an anticoagulant. Samples were centrifuged at a temperature of 4° C. and at a speed of 13,000 rpm for 5 minutes. Samples were maintained chilled throughout processing. Each plasma sample was split into two aliquots. The first aliquot contained 50 μL of plasma. All remaining plasma volume was used for the second aliquot. Samples were then placed on dry ice, and stored in a freezer set to maintain −60° C. to −80° C. The total concentration of genistein in plasma samples were analyzed by LC-MS/MS after an overnight incubation with glucuronidase/arylsulfatase enzyme mixture. Pharmacokinetic parameters were calculated using the WinNonlin software.\nAnalysis of Plasma Samples: An LC-MS/MS analytical method for the determination of genistein in rat plasma was developed. Prior to sample analysis, a standard curve was analyzed to determine the specificity, range, and linearity of the method. Total genistein in plasma samples was determined by pre-treating all samples with β-glucuronidase/arylsulfatase enzymes and incubating prior to analysis. Incubation with the enzyme mix deconjugated any glucuronide or sulfate metabolites of genistein back to the parent form.\nAcceptance Criteria for LC-MS/MS Analysis: One standard curve was dispersed throughout each analytical run. At least ⅝ of the standards must be accurate to within ±20%, except at the LLOQ where ±25% is acceptable, in order for the run to pass.\nPharmacokinetic Analysis: Individual plasma concentrations versus time data for genistein were subjected to non-compartmental analysis using the pharmacokinetic program WinNonlin v. […] Plasma concentrations below the limit of quantitation (10 ng/mL) were assigned a value of zero for PK analysis only."}, "[5]": {"experiment": "Aqueous solubility (slurry shaken ca. 24 hours, filtered, HPLC)", "format": "physicochemical", "protocol": "Aqueous Solubility: Aqueous solubility was measured using the following protocol. Slurries of genistein and of crystalline genistein sodium dihydrate salt were made up in aqueous media in which pH was set at 4.5, 6.7, and 7.5, each slurry was shaken at ambient temperature for ca. 24 hours and then filtered using a 0.2 μm filter into a clean vial. The saturated solutions were then diluted and analyzed for API (genistein) content using N-Ac-DL-Methionine on a Chirobiotic T HPLC column and UV detector set at λmax=270 nm. The mobile phase was acetonitrile/water run in isocratic mode over a 30 minute period. The results are presented in Table 3, (BDL=below detection limits)."}}, "note": "Like-named read-outs stand apart in the source and are kept apart here.", "data": [{"smiles": "O=c1c(-c2ccc(O)cc2)coc2cc(O)cc(O)c12", "note": "[Genistein, 4′,5,7-trihydroxyisoflavone-5,7-dihydroxy-3-(4-hydroxyphenyl)-4H-1-benzopyran-4-one]", "values": [{"measurement": "C[Eq] (late kinetic solubility)", "setting": "[1]; EtOH 100%", "result": 13.79, "unit": "mg×1^−1"}, {"measurement": "C[MSS] (early kinetic solubility)", "setting": "[1]; EtOH 100%", "result": 5.81, "unit": "mg×1^−1"}, {"measurement": "ISI (Intrinsic Solubility Index)", "setting": "[1]; EtOH 100%", "result": 2.11}, {"measurement": "ISI / late solubility profile, rating in words", "setting": "[1]; EtOH 100%", "result": "good"}, {"measurement": "KSR (Kinetic Solubility ratio)", "setting": "[1]; EtOH 100%", "result": 0.42}, {"measurement": "KSR, rating in words", "setting": "[1]; EtOH 100%", "result": "acceptable"}, {"measurement": "MSS (Maximum Solubility Speed)", "setting": "[1]; EtOH 100%", "result": 23.81, "unit": "mg×1^−1×min^−1"}, {"measurement": "MSS, rating in words", "setting": "[1]; EtOH 100%", "result": "good"}, {"measurement": "ΔC [C, − CMSS]", "setting": "[1]; EtOH 100%", "result": 7.98, "unit": "mg×1^−1"}, {"measurement": "C[Eq] (late kinetic solubility)", "setting": "[1]; EtOH/dH2O 50/50 (vol/vol)", "result": 12.87, "unit": "mg×1^−1"}, {"measurement": "C[MSS] (early kinetic solubility)", "setting": "[1]; EtOH/dH2O 50/50 (vol/vol)", "result": 7.43, "unit": "mg×1^−1"}, {"measurement": "ISI (Intrinsic Solubility Index)", "setting": "[1]; EtOH/dH2O 50/50 (vol/vol)", "result": 1.55}, {"measurement": "ISI / late solubility profile, rating in words", "setting": "[1]; EtOH/dH2O 50/50 (vol/vol)", "result": "good"}, {"measurement": "KSR (Kinetic Solubility ratio)", "setting": "[1]; EtOH/dH2O 50/50 (vol/vol)", "result": 0.58}, {"measurement": "KSR, rating in words", "setting": "[1]; EtOH/dH2O 50/50 (vol/vol)", "result": "acceptable"}, {"measurement": "MSS (Maximum Solubility Speed)", "setting": "[1]; EtOH/dH2O 50/50 (vol/vol)", "result": 12.18, "unit": "mg×1^−1×min^−1"}, {"measurement": "MSS, rating in words", "setting": "[1]; EtOH/dH2O 50/50 (vol/vol)", "result": "good"}, {"measurement": "ΔC [CEq − CMSS]", "setting": "[1]; EtOH/dH2O 50/50 (vol/vol)", "result": 5.44, "unit": "mg×1^−1"}, {"measurement": "C[Eq] (late kinetic solubility)", "setting": "[1]; EtOH/dH2O 75/25 (vol/vol)", "result": 14.03, "unit": "mg×1^−1"}, {"measurement": "C[MSS] (early kinetic solubility)", "setting": "[1]; EtOH/dH2O 75/25 (vol/vol)", "result": 8.52, "unit": "mg×1^−1"}, {"measurement": "ISI (Intrinsic Solubility Index)", "setting": "[1]; EtOH/dH2O 75/25 (vol/vol)", "result": 1.49}, {"measurement": "ISI / late solubility profile, rating in words", "setting": "[1]; EtOH/dH2O 75/25 (vol/vol)", "result": "good"}, {"measurement": "KSR (Kinetic Solubility ratio)", "setting": "[1]; EtOH/dH2O 75/25 (vol/vol)", "result": 0.61}, {"measurement": "KSR, rating in words", "setting": "[1]; EtOH/dH2O 75/25 (vol/vol)", "result": "good"}, {"measurement": "MSS (Maximum Solubility Speed)", "setting": "[1]; EtOH/dH2O 75/25 (vol/vol)", "result": 19.67, "unit": "mg×1^−1×min^−1"}, {"measurement": "MSS, rating in words", "setting": "[1]; EtOH/dH2O 75/25 (vol/vol)", "result": "good"}, {"measurement": "ΔC [CEq − CMSS]", "setting": "[1]; EtOH/dH2O 75/25 (vol/vol)", "result": 5.51, "unit": "mg×1^−1"}, {"measurement": "solubility", "setting": "[2]; aqueous with cosolvent or surfactant or cyclodextrin, thermodynamic from solid, Acetone/Water (50:50)", "result": "< 10.1", "unit": "mg/mL"}, {"measurement": "solubility", "setting": "[2]; organic solvent or mixture, thermodynamic from solid, 1,4-dioxane", "result": "< 10.3", "unit": "mg/mL"}, {"measurement": "solubility", "setting": "[2]; organic solvent or mixture, thermodynamic from solid, 1-Butanol (BuOH)", "result": "< 10.5", "unit": "mg/mL"}, {"measurement": "solubility", "setting": "[2]; organic solvent or mixture, thermodynamic from solid, 2-Propanol (IPA)", "result": "< 10.5", "unit": "mg/mL"}, {"measurement": "solubility", "setting": "[2]; organic solvent or mixture, thermodynamic from solid, Acetone", "result": "~17", "unit": "mg/mL"}, {"measurement": "solubility", "setting": "[2]; organic solvent or mixture, thermodynamic from solid, Acetone/IPA (50:50)", "result": 20.1, "unit": "mg/mL"}, {"measurement": "solubility", "setting": "[2]; organic solvent or mixture, thermodynamic from solid, Acetonitrile (MeCN)", "result": "< 10.1", "unit": "mg/mL"}, {"measurement": "solubility", "setting": "[2]; organic solvent or mixture, thermodynamic from solid, Cyclohexane", "result": "< 10.7", "unit": "mg/mL"}, {"measurement": "solubility", "setting": "[2]; organic solvent or mixture, thermodynamic from solid, Dichloromethane (DCM)", "result": "< 10.3", "unit": "mg/mL"}, {"measurement": "solubility", "setting": "[2]; organic solvent or mixture, thermodynamic from solid, Diisopropylether (DIPE)", "result": "< 10.6", "unit": "mg/mL"}, {"measurement": "solubility", "setting": "[2]; organic solvent or mixture, thermodynamic from solid, Dimethyl sulfoxide (DMSO)", "result": "~100", "unit": "mg/mL"}, {"measurement": "solubility", "setting": "[2]; organic solvent or mixture, thermodynamic from solid, Ethanol (EtOH)", "result": "< 10.8", "unit": "mg/mL"}, {"measurement": "solubility", "setting": "[2]; organic solvent or mixture, thermodynamic from solid, Heptane", "result": "< 10.5", "unit": "mg/mL"}, {"measurement": "solubility", "setting": "[2]; organic solvent or mixture, thermodynamic from solid, Methanol (MeOH)", "result": "< 10.6", "unit": "mg/mL"}, {"measurement": "solubility", "setting": "[2]; organic solvent or mixture, thermodynamic from solid, Methyl acetate (MeOAc)", "result": "< 10.3", "unit": "mg/mL"}, {"measurement": "solubility", "setting": "[2]; organic solvent or mixture, thermodynamic from solid, Methyl isobutyl ketone (MIBK)", "result": "< 10.1", "unit": "mg/mL"}, {"measurement": "solubility", "setting": "[2]; organic solvent or mixture, thermodynamic from solid, Methylethyl ketone (MEK)", "result": "< 10.8", "unit": "mg/mL"}, {"measurement": "solubility", "setting": "[2]; organic solvent or mixture, thermodynamic from solid, N-Methyl-2-pyrrolidinone (NMP)", "result": "~68", "unit": "mg/mL"}, {"measurement": "solubility", "setting": "[2]; organic solvent or mixture, thermodynamic from solid, N-N-dimethylformamide (DMF)", "result": "~100", "unit": "mg/mL"}, {"measurement": "solubility", "setting": "[2]; organic solvent or mixture, thermodynamic from solid, Octanol", "result": "< 10.5", "unit": "mg/mL"}, {"measurement": "solubility", "setting": "[2]; organic solvent or mixture, thermodynamic from solid, Tetrahydrofuran (THF)", "result": 26.3, "unit": "mg/mL"}, {"measurement": "solubility", "setting": "[2]; organic solvent or mixture, thermodynamic from solid, Toluene", "result": "< 10.1", "unit": "mg/mL"}, {"measurement": "solubility", "setting": "[2]; organic solvent or mixture, thermodynamic from solid, Toluene/Dioxane (50:50)", "result": "< 10.1", "unit": "mg/mL"}, {"measurement": "solubility", "setting": "[2]; organic solvent or mixture, thermodynamic from solid, tert-Butylmethyl ether (TBME)", "result": "< 10.5", "unit": "mg/mL"}, {"measurement": "Solubility in water (in words)", "setting": "[3]; background statement", "result": "practically insoluble"}, {"measurement": "Aqueous solubility (reported)", "setting": "[3]; reported range", "result": "0.01 to 0.04", "unit": "µM"}, {"measurement": "AUClast", "setting": "[4]; intraduodenal, 20 mg/kg", "result": "414 ± 111", "unit": "kg·ng·h/mL/mg"}, {"measurement": "AUClast", "setting": "[4]; intravenous, 1 mg/kg", "result": "2533 ± 638", "unit": "kg·ng·h/mL/mg"}, {"measurement": "AUC∞", "setting": "[4]; intravenous, 1 mg/kg", "result": "2584 ± 639", "unit": "kg·ng·h/mL/mg"}, {"measurement": "Aqueous solubility", "setting": "[5]; Water/slurry pH 4.5, ambient temperature", "result": "BDL"}, {"measurement": "Aqueous solubility", "setting": "[5]; Water/slurry pH 6.7, ambient temperature", "result": "BDL"}, {"measurement": "Aqueous solubility", "setting": "[5]; Water/slurry pH 7.5, ambient temperature", "result": "BDL"}]}]}
